The values below come from ChEMBL document CHEMBL5604062, “ASAP - ZIKV NS2B-NS3 protease fluorescence dose response” (2024).

Values joined by “and” are separate entries in the source; they are usually repeats but may differ in a detail not shown here. Equal values may be shown once.

The target in this assay is Nonstructural protein 3 (Zika virus, UniProt A0A024AXB9). Description: Functional biochemical assay to identify treatments for viral infectious disease that targets Zika NS2B-NS3 protease. Utilizing a direct enzyme activity measurement method, reading the fluorescence intensity is used to characterize the relative potency of inhibitors as IC50. Further details: species or system PRVABC59.
Nonstructural protein 3, sequence (A0A024AXB9 whole entry): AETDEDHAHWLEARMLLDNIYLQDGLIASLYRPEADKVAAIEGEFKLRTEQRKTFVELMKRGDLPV
In the case of `N#C[C@]1(Nc2ccc3c(c2)CNC3)C(=O)Nc2ccccc21`, the concentration for half-maximal inhibition (IC50) (usually the concentration at which inhibition is half-maximal) was determined as 27.4 µM. For `CCc1cc(C(=O)Nc2ccc3c(c2)CNC3)sc1-c1ccc(Cl)cc1`, the 50% inhibitory concentration (IC50) is over 99.5 µM. Compound `CC(C)(C)OC(=O)NCc1cc(NC(=O)c2cc(Cl)cc(NC(=O)OCc3ccccc3)c2)cc(-c2nn[nH]n2)c1` had a half-maximal inhibitory concentration (IC50) of 11.5 µM. `NCCCCc1ccc(NC(=O)c2cc(Cl)cc3[nH]ncc23)cc1` showed an IC50 of 19.9 µM. Compound `Cc1c(C(=O)Nc2cc(CCCN)ccn2)cc(C2CCC2)n1C` returned a 50% inhibitory concentration (IC50) of over 99.5 µM. Regarding `O=C(Nc1ccc2c(c1)CNCC2)c1cc(Cl)cc2[nH]ncc12`, inhibition was half-maximal at 0.504 µM (IC50). Consider `Cc1c(C(=O)Nc2cc(CCCN)ccn2)cc(C(C)C)n1C`, for which the IC50 was over 99.5 µM. Take `O=C(O)c1cc2cc(-c3cccc([C@H]4CNCCO4)c3)ccc2[nH]1`: the IC50 was over 99.5 µM. `O=C(Nc1ccc2c(c1)CNC2)c1ccccc1-n1cccc1` registered a half-inhibitory concentration (IC50) of 25.1 µM. `O=C(O)Cc1c[nH]c2cc(-c3cc(Cl)cc(NC(=O)OCc4ccccc4)c3)ccc12` displayed a 50% inhibitory concentration (IC50) of over 99.5 µM.

`CC(C)(C)c1cc(Br)cc(C(=O)Nc2ccc3c(c2)CNC3)c1`: the IC50 was 0.356 µM. For `O=C(Nc1ccc2c(c1)CNC2)c1cc(Cl)cc(-n2cccc2)c1` the value was 0.091 µM and 0.084 µM; for `Cc1oc2nc(-c3cc(Cl)cc(NC(=O)OCc4ccccc4)c3)ccc2c1C(=O)O`, over 99.5 µM; for `CN1Cc2ccc(NC(=O)c3cc(Cl)cc4[nH]ncc34)cc2C1`, 0.832 µM. On to `Cc1cc(CN)cc(NC(=O)c2cc(Cl)cc3[nH]ncc23)c1`, for which the half-inhibitory concentration (IC50) was 0.736 µM. `Cc1cc(NC(=O)c2cc(C3CC3)n(C)c2C)ncc1S(N)(=O)=O`: the IC50 is over 99.5 µM. For the compound `O=C(O)C[C@H]1CN(c2ccc(-c3cc(Cl)cc(NC(=O)OCc4ccccc4)c3)cn2)CCO1`, the half-inhibitory concentration (IC50) was over 99.5 µM. Turning to `CC(C)NC(=O)[C@H](Nc1ccc2c(c1)CNC2)c1cc(Cl)cc2[nH]ncc12`, the IC50 was 0.086 µM and 0.054 µM and 0.124 µM and 0.138 µM and 0.089 µM. As for `O=C(Nc1ccc2c(c1)CNC2)c1cc(Br)cc2ccccc12`, half-maximal inhibition (IC50) required 0.206 µM.

With `NCCc1ccc(NC(=O)c2cc(Cl)cc3[nH]ncc23)cc1`, 3.78 µM corresponded to half-maximal inhibition (IC50). The compound `Cc1c(C(=O)NCc2ccc(CN)cc2)cc(C2CC2)n1C` returned a 50% inhibitory concentration (IC50) of over 99.5 µM.

As to `O=C(Nc1cc(Cl)cc(-c2cnn(Cc3ccc(C(=O)O)cc3)c2)c1)OCc1ccccc1`, the IC50 came to 39.4 µM.

For the compound `NCc1cc(NC(=O)c2cc(Cl)cc(NC(=O)OCc3ccccc3)c2)cc(C2=CC[C@H](C(=O)O)CC2)c1`, the concentration for half-maximal inhibition (IC50) came to 14.6 µM. The same measure for `C=C1C[C@H](c2cc(Cl)cc(NC(=O)OCc3ccccc3)c2)[C@@H](c2cccc(-c3nn[nH]n3)c2)C1`: 18.9 µM; for `O=C(Nc1ccc2c(c1)CNC2)c1cc(Cl)cc(C2CC2)c1`: 0.216 µM. For `NCc1cc(NC(=O)c2cc(Cl)cc(NC(=O)OCc3ccccc3)c2)cc(-c2csc(CC(=O)O)c2)c1` the value was 15 µM; for `O=C(Nc1ccc2c(c1)CNC2)c1cc(Cl)cc2c1CCC2`, 0.159 µM. For `Cc1c(C(=O)Nc2cc(-c3ccccn3)c(Br)cn2)cc(C2CC2)n1C`, the half-inhibitory concentration (IC50) is over 99.5 µM.

`O=C(O)c1cc2cc(-c3cc(Cl)cc4ncccc34)ccc2[nH]1` had an IC50 of 40.3 µM. The same measure for `O=C(O)c1cc2cccc(Cc3c[nH]c4ccc(Cl)cc34)c2[nH]1`: over 99.5 µM; for `Nc1cc(Cl)cc(C(=O)Nc2ccc3c(c2)CNC3)c1N`: 0.354 µM.

On to `NCc1nc2cc(Cl)ccc2n1Cc1ccc(-c2nn[nH]n2)cc1`, for which the half-inhibitory concentration (IC50) is over 99.5 µM.

The compound `O=C(Nc1ccc2c(c1)CNC2)c1n[nH]c(=O)c2ccccc12` showed an IC50 of 22.4 µM. On to `FC(F)(F)Oc1cc(Cl)cc2c(Cc3ccc(-c4nnn[nH]4)cc3)c[nH]c12`, for which half-maximal inhibition (IC50) required 34.1 µM. The same measure for `O=C1OCc2ccc(NC(=O)c3cc(Cl)cc4[nH]ncc34)cc21`: 32.3 µM; for `Clc1ccc2[nH]cc(Cc3ccc4c(c3)CNC4)c2c1`: over 99.5 µM. `O=C(Nc1ccc2c(c1)CNC2)c1n[nH]c2ncc(Br)cc12`: the midpoint of inhibition, the IC50, lay at 46.1 µM. With `Cc1c(C(=O)Nc2cc(-c3cnn(C)c3)ccn2)cc(C2CC2)n1C`, the 50% inhibitory concentration (IC50) is over 99.5 µM. The compound `N#Cc1cc(-c2ccc3[nH]c(C(=O)O)cc3c2)c2nc[nH]c2c1` displayed a 50% inhibitory concentration (IC50) of over 99.5 µM. `CCCc1sc(C(=O)Nc2ccc3c(c2)CNC3)cc1CC` returned a half-inhibitory concentration (IC50) of 20.1 µM. `Cc1c(C(=O)Nc2cc(C(N)=O)c3ccccc3n2)cc(C2CC2)n1C` had a concentration for half-maximal inhibition (IC50) of over 99.5 µM.

`O=C(Nc1ccc2c(c1)CNC2)c1ccccn1` yielded a 50% inhibitory concentration (IC50) of 57.3 µM. In turn, `N#Cc1ccc(Cl)c(C(=O)Nc2ccc3c(c2)CNC3)c1` displayed an IC50 of 1.99 µM. `Cc1c(C(=O)Nc2nccc3c2CNCC3)cc(C2CC2)n1C` had a 50% inhibitory concentration (IC50) of over 99.5 µM.

Take `Cc1c(C(=O)Nc2cc(CCCN)ccn2)cc(C2CCCCC2)n1C`: the concentration for half-maximal inhibition (IC50) was over 99.5 µM. Compound `O=C(O)c1nc(Cc2c[nH]c3ccc(Cl)cc23)c2ccccn12` yielded an IC50 of over 99.5 µM.

On to `Cc1cc(CC(=O)O)ccc1Cc1c[nH]c2ccc(Cl)cc12`, for which the IC50 is over 99.5 µM. Consider `O=C(Nc1ccc2c(c1)CNC2)c1ccnc(CO)c1`, for which the 50% inhibitory concentration (IC50) was over 99.5 µM.

Compound `Cc1c(C(=O)Nc2cc(C(=O)N(C)C)ccn2)cc(C2CC2)n1C` gave an IC50 of over 99.5 µM. Compound `NCc1cc(NC(=O)c2cc(Cl)cc(NC(=O)OCc3ccccc3)c2)cc(-c2cccc(CC(=O)O)c2)c1` yielded an IC50 of 39.6 µM. Compound `O=C(Nc1ccc([C@H]2CCNC2)cc1)c1cc(Cl)cc2[nH]ncc12` showed a 50% inhibitory concentration (IC50) of 2.51 µM. Turning to `C=CC[C@H](Nc1ccc2c(c1)CNC2)c1cc(Cl)cc2[nH]ncc12`, the IC50 was found to be 7.93 µM. `O=C(Nc1ccc2c(c1)CNC2)c1cccnc1` had an IC50 of 16.6 µM. The compound `O=C(O)c1cc2cc(-c3cccc([C@H]4COCCN4)c3)ccc2[nH]1` displayed an IC50 of over 99.5 µM. The same measure for `CC(C)c1cc(Br)cc(C(=O)Nc2ccc3c(c2)CNC3)c1`: 0.393 µM; for `CCOCCCN1Cc2ccc(NC(=O)c3cc(Cl)cc4[nH]ncc34)cc2C1`: 33.1 µM. Compound `O=C(O)c1cc2cc(-c3cc(Cl)c4[nH]c(=O)oc4c3)ccc2[nH]1` gave an IC50 of 90.2 µM. For `O=C(Nc1ccc2c(c1)CNC2)c1cccc2[nH]ncc12`, half-maximal inhibition (IC50) was put at 0.129 µM. The same measure for `N[C@H]1CC[C@H](c2ccc(NC(=O)c3cc(Cl)cc4[nH]ncc34)cc2)C1`: 8.51 µM; for `CNC(=O)[C@]1(Nc2ccc3c(c2)CNC3)C(=O)Nc2ccccc21`: over 99.5 µM.

The compound `Cc1ccc(C(C)C)c(C(=O)Nc2ccc3c(c2)CNC3)c1` yielded a concentration for half-maximal inhibition (IC50) of 3.72 µM. Compound `O=C(Nc1ccc2c(c1)CNC2)c1cc(Br)cc2c1OCO2` displayed an IC50 of 0.848 µM.

In turn, `O=C(O)COc1cc2c(cc1Cc1c[nH]c3ccc(Cl)cc13)OCO2` gave an IC50 of over 99.5 µM.

As to `Clc1ccc2c(c1)ncn2Cc1ccc(-c2nn[nH]n2)cc1`, the IC50 is over 99.5 µM. For the compound `NCCCc1ccnc(NC(=O)c2csc(C3CC3)n2)c1`, the IC50 is over 99.5 µM.

The compound `O=C(Nc1ccc2c(c1)CCCN2)c1cc(Cl)cc2[nH]ncc12` showed an IC50 of over 99.5 µM. The compound `O=C(O)c1nccn2ncc(Cc3c[nH]c4ccc(Cl)cc34)c12` came in with an IC50 of over 99.5 µM.

As to `Cc1ccc(-c2cc(CN)cc([C@@H]3C[C@H]3c3cc(Cl)cc(NC(=O)OCc4ccccc4)c3)c2)cn1`, 3.56 µM corresponded to half-maximal inhibition (IC50). As to `O=C(Nc1ccc2c(c1)CNC2)[C@H]1CCc2ccccc21`, the concentration for half-maximal inhibition (IC50) was over 99.5 µM. `O=C(Nc1ccc2c(c1)CNC2)c1ccncc1` gave a half-maximal inhibitory concentration (IC50) of over 99.5 µM. The same measure for `COC(=O)c1cc(Br)cc2c(Cc3ccc(-c4nnn[nH]4)cc3)c[nH]c12`: over 99.5 µM.

`O=C1Cc2cc(NC(=O)c3cc(Cl)cc4[nH]ncc34)ccc2N1` returned an IC50 of over 99.5 µM.

`O=C(Nc1ccc2c(c1)OCO2)c1cc(Cl)cc2[nH]ncc12` registered a concentration for half-maximal inhibition (IC50) of over 99.5 µM. Turning to `Cc1c(C(=O)O)sc2ncc(Cc3c[nH]c4ccc(Cl)cc34)cc12`, the IC50 came to 97.2 µM. In turn, `O=C(Nc1ccc(C2CNC2)cc1)c1cc(Cl)cc2[nH]ncc12` returned an IC50 of 1.22 µM. For `CNC(=O)[C@]1(Nc2ccc3c(c2)CNC3)CCc2ccc(Cl)cc21` the value was 34.6 µM; for `CCc1nc2c(C(=O)Nc3ccc4c(c3)CNC4)cc(Br)cc2[nH]1`, 0.187 µM; for `Clc1ccc2nc(C3CCOCC3)n(Cc3ccc4c(c3)CNC4)c2c1`, over 99.5 µM. `CC(C)c1nc2cc(Cl)ccc2n1Cc1ccc(-c2nn[nH]n2)cc1` displayed an IC50 of over 99.5 µM. Regarding `Nc1ccc(NC(=O)c2cc(Cl)cc3[nH]ncc23)cn1`, the IC50 was over 99.5 µM.

`O=C(Nc1ccc2c(c1)C[C@H](O)C2)c1cc(Cl)cc2[nH]ncc12` gave a half-maximal inhibitory concentration (IC50) of over 99.5 µM. For the compound `N[C@H]1CCc2cc(NC(=O)c3cc(Cl)cc4[nH]ncc34)ccc21`, the IC50 is 5.21 µM. Compound `O=C1CCc2cc(NC(=O)c3cc(Cl)cc4[nH]ncc34)ccc2N1` showed a half-maximal inhibitory concentration (IC50) of over 99.5 µM. `Cc1ncc(Br)cc1C(=O)Nc1ccc2c(c1)CNC2` showed a half-maximal inhibitory concentration (IC50) of 1.85 µM. Regarding `CNc1c(-c2cc(Cl)cc(C3CC3)c2)nc2cc(C(=O)O)ccn12`, the 50% inhibitory concentration (IC50) is over 99.5 µM. For the compound `O=C(O)c1nn(-c2ccccc2)cc1Cc1c[nH]c2ccc(Cl)cc12`, the IC50 is over 99.5 µM. Compound `Cc1c(C(=O)Nc2cc(C#N)c3ccccc3n2)cc(C2CC2)n1C` displayed an IC50 of over 99.5 µM. As to `O=C(Nc1cc(Cl)cc(-c2cc(NCc3ccccc3)c(C(=O)O)cn2)c1)OCc1ccccc1`, inhibition was half-maximal at 14 µM (IC50). Compound `CNc1c(-c2cc(Cl)cc(C3CC3)c2)nc2cccc(C(=O)O)n12` gave a concentration for half-maximal inhibition (IC50) of over 99.5 µM.

Consider `N#Cc1cccc(C[C@H](O)c2cc(Cl)cc(NC(=O)OCc3ccccc3)c2)c1`, for which the IC50 is over 99.5 µM.

In turn, `O=C(Nc1ccc(C2CCNCC2)cc1)c1cc(Cl)cc2[nH]ncc12` registered a concentration for half-maximal inhibition (IC50) of 9.21 µM. `Cc1cc(-c2ccc3[nH]c(C(=O)O)cc3c2)c2cc[nH]c(=O)c2c1`: the half-inhibitory concentration (IC50) was over 99.5 µM. Consider `CC(C)c1nc2c(C(=O)Nc3ccc4c(c3)CNC4)cc(Br)cc2[nH]1`, for which half-maximal inhibition (IC50) required 0.316 µM. In turn, `NC(=O)c1[nH]c2ccc(Br)cc2c1Cc1ccc(-c2nnn[nH]2)cc1` yielded an IC50 of over 99.5 µM. Compound `Cn1cc(-c2cc(CN)cc([C@@H]3C[C@H]3c3cc(Cl)cc(NC(=O)OCc4ccccc4)c3)c2)cn1` came in with an IC50 of 13.3 µM.

Regarding `Cc1oc(C2CC2)nc1C(=O)Nc1cc(CCCN)ccn1`, the IC50 was over 99.5 µM.
